Where two headings read alike, the source gives them in different places.
Assays:
primary rat hepatocytes = assay: Inhibition of lipid synthesis ([1-14C]-acetate incorporation) in primary rat hepatocytes; assay type: cell-based; settings: Hepatocyte, 4 hours incubation, 0-300 μM
Procedure: Compounds were tested for inhibition of lipid synthesis in primary cultures of rat hepatocytes. Male Sprague-Dawley rats were anesthetized with intraperitoneal injection of sodium pentobarbital (80 mg/kg). Rat hepatocytes were isolated essentially as described by the method of Seglen (Seglen, P. O. Hepatocyte suspensions and cultures as tools in experimental carcinogenesis. J. Toxicol. Environ. Health 1979, 5, 551-560). Hepatocytes were suspended in Dulbecco's Modified Eagles Medium containing 25 mM D-glucose, 14 mM HEPES, 5 mM L-glutamine, 5 mM leucine, 5 mM alanine, 10 mM lactate, 1 mM pyruvate, 0.2% bovine serum albumin, 17.4 mM non-essential amino acids, 20% fetal bovine serum, 100 nM insulin and 20 μg/mL gentamycin) and plated at a density of 1.5×10^5 cells/cm^2 on collagen-coated 96-well plates. Four hours after plating, media was replaced with the same media without serum. Cells were grown overnight to allow formation of monolayer cultures. Lipid synthesis incubation conditions were initially assessed to ensure the linearity of [1-^14C]-acetate incorporation into hepatocyte lipids for up to 4 hours. Hepatocyte lipid synthesis inhibitory activity was assessed during incubations in the presence of 0.25 μCi [1-^14C]-acetate/well (final radiospecific activity in assay is 1 Ci/mol) and 0, 1, 3, 10, 30, 100 or 300 μM of compounds for 4 hours. At the end of the 4-hour incubation period, medium was discarded and cells were washed twice with ice-cold phosphate buffered saline and stored frozen prior to analysis. To determine total lipid synthesis, 170 μl of MicroScint-E® and 50 μl water was added to each well to extract and partition the lipid soluble products to the upper organic phase containing the scintillant. Lipid radioactivity was assessed by scintillation spectroscopy in a Packard TopCount NXT.

obese female Zucker rats = assay: Oral daily treatment of obese female Zucker rats for fourteen days: serum lipids, glycemic control indicators, body weight; assay type: in vivo, rat; settings: for change in vivo at 100 mg/kg/day / change in vivo at 100 mg/kg: Rattus norvegicus, 336 h; for change in vivo at 100 mg/kg/day: 100 mg/kg/day oral gavage, read-out: % wt. gain; for change in vivo at 100 mg/kg / HDL-C/non-HDL-C: 100 mg/kg/day oral; for HDL-C/non-HDL-C: serum ratio
Procedure: In a number of different experiments, illustrative compounds of the invention are administered daily at a dose of up to 100 mg/kg to chow fed obese female Zucker rats for fourteen days in the morning by oral gavage in 1.5% carboxymethylcellulose/0.2% Tween 20 or 20% ethanol/80% polyethylene glycol (dosing vehicles). Animals are weighed daily. Animals are allowed free access to rodent chow and water throughout the study except on days of blood sampling where food is restricted for six hours prior to blood sampling. Blood glucose is determined after the 6 hour fast in the afternoon without anesthesia from a tail vein. Serum is also prepared from pretreatment blood samples subsequently obtained from the orbital venous plexus (with O2/CO2 anesthesia) and following the fourteenth dose at sacrifice from the heart following O2/CO2 anesthesia. Serums are assayed for lipoprotein cholesterol profiles, triglycerides, total cholesterol, Non-HDL cholesterol, HDL cholesterol, the ratio of HDL cholesterol to that of Non-HDL cholesterol, insulin, non-esterified fatty acids, and beta-hydroxy butyric acid. The percent body weight gain and the ratio of liver to body weight is also determined. These are shown as absolute values or as a percent change of the pretreatment values in Table 1 for compounds A-K and in Table 2 for compounds L-M. [drawing 111]

female Syrian hamsters = assay: Chow-fed female Syrian hamsters, 3 weeks of oral dosing: lipoprotein cholesterol, triglycerides, glucose, insulin, body weight, bile acids; assay type: in vivo; settings: chow-fed hamster, 100 mg/kg/day oral, 3 weeks of dosing
Procedure: Ten week old female Syrian hamsters were acclimated for 21 days to a shortened light and dark cycle (10 hours of light/14 hours of darkness). During the acclimation and drug intervention period animals were allowed free access to rodent chow (Purina 5001) and water except for a 6 hour period prior to blood sampling. Following the 21 day acclimation period ESP 55015 was administered daily for three weeks, between 8 10 AM, at a dose of 100 mg/Kg by oral gavage in a dosing vehicle consisting of 20% Ethanol/80% Polyethylene glycol 200 [v/v]. Prior to and in the afternoon following the 13th and 21st doses blood samples were collected, between 2 PM and 4 PM, by administering O2/CO2 anesthesia and bleeding from the orbital venous plexus. All blood samples were processed for separation of serum. Serum samples were subsequently assayed for total cholesterol, total cholesterol lipoprotein profiles (HDL cholesterol, LDL cholesterol and VLDL cholesterol), the ratio of HDL cholesterol, LDL cholesterol and VLDL cholesterol), the ratio of HDL cholesterol to non HDL cholesterol (LDL C, VLDL C) and triglycerides (Table 4). Percent body weight gain and ratio of liver weight to body weight were also determined.

[1] = blood glucose after 6 hour fast, read-out: Glucose (Percent of Pre-treatment)
[2] = serum beta-hydroxy butyric acid, read-out: BHA (Percent of Pre-treatment)
[3] = serum non-esterified fatty acids, read-out: NEFA (Percent of Pre-treatment)
[4] = serum total cholesterol, read-out: TC (Percent of Pre-treatment)
[5] = serum triglycerides, read-out: TG (Percent of Pre-treatment)
[6] = serum, read-out: HDL-C (Percent of Pre-treatment)
[7] = serum, read-out: Insulin (Percent of Pre-treatment)
[8] = serum, read-out: Non-HDL-C (Percent of Pre-treatment)

Structure (SMILES) | IC50 (primary rat hepatocytes) [µM] | change in vivo at 100 mg/kg/day (obese female Zucker rats) [%] | change in vivo at 100 mg/kg (obese female Zucker rats; [1]) [%] | change in vivo at 100 mg/kg (obese female Zucker rats; [2]) [%] | change in vivo at 100 mg/kg (obese female Zucker rats; [3]) [%] | change in vivo at 100 mg/kg (obese female Zucker rats; [4]) [%] | change in vivo at 100 mg/kg (obese female Zucker rats; [5]) [%] | change in vivo at 100 mg/kg (obese female Zucker rats; [6]) [%] | change in vivo at 100 mg/kg (obese female Zucker rats; [7]) [%] | change in vivo at 100 mg/kg (obese female Zucker rats; [8]) [%] | HDL-C/non-HDL-C (obese female Zucker rats) | melting point [°C] | Bile Acids (female Syrian hamsters) | Body wt. (female Syrian hamsters) [gm] | Glucose (female Syrian hamsters) | Insulin (female Syrian hamsters) | HDL-C (female Syrian hamsters; serum) [mg/dL] | LDL-C (female Syrian hamsters; serum) [mg/dL] | TG (female Syrian hamsters; serum) [mg/dL] | VLDL-C (female Syrian hamsters; serum) [mg/dL]
CC(C)(CO)CCCCCC(O)CCCCC(C)(C)CO (stereo not drawn) [D] | 1.6 | – | – | – | – | – | – | – | – | – | – | – | – | – | – | – | – | – | – | –
CCCCC(O)CCCCCC(C)(C)C(=O)O (stereo not drawn) [L] | – | 12 | 13 | 88 | -27 | -3 | -37 | -2 | -37 | -11 | 4 | – | – | – | – | – | – | – | – | –
CC(C)(CCCCC(CO)CCCCC(C)(C)C(=O)O)C(=O)O [K] | 14 | 10 | 3 | 253 | -32 | 35 | -45 | 62 | 41 | -38 | 9 | – | – | – | – | – | – | – | – | –
CC(C)(CO)CCCCCCCC(O)CCCCCCCC(C)(C)CO [H] | 2.6 | 9 | 19 | 97 | -30 | 61 | -36 | 115 | -30 | -5 | 3 | – | – | – | – | – | – | – | – | –
CC(C)(CCCCC(O)CCCC(C)(C)C(=O)O)C(=O)O (stereo not drawn) [E] | 8.3 | – | – | – | – | – | – | – | – | – | – | – | – | – | – | – | – | – | – | –
CC(C)(CO)CCCCCCC(O)CCCCCCC(C)(C)CO [Compound 6.32, 2,2,16,16-Tetramethylheptadecane-1,9,17-triol] | – | – | – | – | – | – | – | – | – | – | – | 75 to 77 | – | – | – | – | – | – | – | –
CC(C)(CO)Cc1cccc(C(O)c2cccc(CC(C)(C)CO)c2)c1 [Compound 6.46, 3-(3-{Hydroxy-[3-(3-hydroxy-2,2-dimethylpropyl)-phenyl]-methyl}-phenyl)-2,2-dimethylpropan-1-ol] | – | – | – | – | – | – | – | – | – | – | – | 98 to 99 | – | – | – | – | – | – | – | –
CC(C)(CCCCCC(O)CCCCCC(C)(C)C(=O)O)C(=O)O [C] | 1 | 3 | -11 | 171 | -42 | 105 | -90 | 169 | -57 | -80 | 40 | – | – | – | – | – | – | – | – | –
CC(C)(CO)CCCCC(O)CCCCC(C)(C)CO [F] | 6.4 | 3 | 10 | – | -43 | 53 | -46 | 222 | -4 | -15 | 2 | – | – | – | – | – | – | – | – | –
CC(C)(CO)CCCCCC(O)CCCCCC(C)(C)CO [Compound B] | 5.1 | 1 | -3 | 199 | -28 | 105 | -87 | 237 | -52 | -81 | 35 | – | 67,108 ± 17,529 ng/ml | 146 ± 2 | 122 ± 3 | 2.4 ± 0.7 | 63 ± 4 | 44 ± 4 | 128 ± 37 | 4 ± 2
CC(C)(CO)CCCCCCC(O)CCCCCCC(C)(C)CO [G] | 7.8 | 9 | 14 | 163 | -62 | 21 | -80 | 68 | -38 | -68 | 12 | – | – | – | – | – | – | – | – | –
CC(C)(CCCCCC(O)CCCCCC(C)(C)CC(=O)c1cccnc1)COC(=O)c1cccnc1 (stereo not drawn) [Compound 6.37, Nicotinic acid 8-hydroxy-2,2,14,14-tetramethyl-15-nicotinoylpentadecyl ester] | – | – | – | – | – | – | – | – | – | – | – | 65 to 67 | – | – | – | – | – | – | – | –
CC(C)(CO)CCCCC(O)CCCCC(C)(C)C(=O)O (stereo not drawn) [Compound I] | 2.3 | – | – | – | – | – | – | – | – | – | – | – | – | – | – | – | – | – | – | –
CC(C)(CCCCC(O)CCCCC(C)(C)C(=O)O)C(=O)O [A] | 3.4 | 12 | -2 | 231 | -11 | 14 | -59 | 50 | 43 | -41 | 5 | – | – | – | – | – | – | – | – | –
CC(C)(CO)CCCCC(CO)CCCCC(C)(C)CO [J] | 17 | 12 | 21 | 183 | -32 | -6 | -23 | -2 | -11 | -12 | 2 | – | – | – | – | – | – | – | – | –

Source: patent publication US20070179120A1, “HYDROXYL COMPOUNDS AND COMPOSITIONS FOR CHOLESTEROL MANAGEMENT AND RELATED USES” (ESPERION THERAPEUTICS, INC., priority 2003, published 2007)
